The numbers were not newly measured in US7816544B2, “Synthesis of rocaglamide natural products via photochemical generation of oxidopyrylium species” (Trustees of Boston University, priority 2004, dated 2010), which cites them from elsewhere.

The test system of one data set is NF-κB. As to conditions: different mouse and human T cell lines; B. Baumann et al., J. Biol. Chem., 2002.
A further data set has as its system human cancer cells. To be noted: compared with Taxol; B. Y. Hwang et al., J. Org. Chem., 2004.

As to `COc1ccc([C@@]23Oc4cc(OC)cc(OC)c4[C@]2(O)[C@H](O)[C@H](C(=O)N(C)C)[C@H]3c2ccccc2)cc1` [Rocaglamide], the “inhibition of NF-κB activity / NF-κB-induced gene activation” value with NF-κB is reported as “among the strongest inhibitors of NF-κB-induced gene activation known so far”.
Turning to `COC(=O)[C@H]1[C@@H](O)[C@@]2(O)c3c(OC)cc(O[C@@H]4O[C@@H]([C@H](O)CO)CO[C@H]4OC)cc3O[C@@]2(c2ccc(OC)cc2)[C@@H]1c1ccccc1` [silvestrol 2, silvestrol], the “cytotoxic activity against human cancer cells” value in the data set with human cancer cells is on record as “comparable to the anticancer drug Taxol”.
